Test results from the NIST ThermoML archive (doi:10.1016/j.jct.2010.01.004).
± gives the expanded uncertainty stated by the source.

How the values were obtained:
[1] = activity coefficient (dimensionless); of the first substance listed, at infinite dilution; xn = mol fraction of the nth substance listed; conditions: Liquid, Chromatography, x1 = 0
[2] = 308.15 K; 101.33 kPa; Liquid; Vibrating tube method

Compound	activity coefficient ([1]; 298.15 K)	activity coefficient ([1]; 308.15 K)	activity coefficient ([1]; 318.15 K)	activity coefficient ([1]; 328.15 K)	activity coefficient ([1]; 338.15 K)	activity coefficient ([1]; 348.15 K)	activity coefficient ([1]; 358.15 K)	activity coefficient ([1]; 368.15 K)	mass density [2] [kg/m3]
Cc1ccccc1C [1,2-dimethylbenzene] + CC(C)C[P+](C)(CC(C)C)CC(C)C.Cc1ccc(S(=O)(=O)[O-])cc1	2.31 ± 0.16	2.21 ± 0.15	2.18 ± 0.15	2.1 ± 0.14	2.06 ± 0.14	2.04 ± 0.14	2.03 ± 0.14	2.01 ± 0.14	
Cc1cccc(C)c1 [1,3-dimethylbenzene] + CC(C)C[P+](C)(CC(C)C)CC(C)C.Cc1ccc(S(=O)(=O)[O-])cc1	2.68 ± 0.18	2.48 ± 0.17	2.44 ± 0.17	2.33 ± 0.16	2.36 ± 0.16	2.28 ± 0.16	2.27 ± 0.15	2.23 ± 0.15	
Cc1ccc(C)cc1 [1,4-dimethylbenzene] + CC(C)C[P+](C)(CC(C)C)CC(C)C.Cc1ccc(S(=O)(=O)[O-])cc1	2.54 ± 0.17	2.44 ± 0.17	2.4 ± 0.16	2.23 ± 0.15	2.26 ± 0.15	2.23 ± 0.15	2.24 ± 0.15	2.21 ± 0.15	
C=CCCCCC [1-heptene] + CC(C)C[P+](C)(CC(C)C)CC(C)C.Cc1ccc(S(=O)(=O)[O-])cc1	19.2 ± 1.3	14.6 ± 1	11.9 ± 0.8	9.62 ± 0.66					
C#CCCCCC [1-heptyne] + CC(C)C[P+](C)(CC(C)C)CC(C)C.Cc1ccc(S(=O)(=O)[O-])cc1	2.57 ± 0.17	2.62 ± 0.18	2.54 ± 0.17	2.54 ± 0.17					
C#CCCCC [1-hexyne] + CC(C)C[P+](C)(CC(C)C)CC(C)C.Cc1ccc(S(=O)(=O)[O-])cc1	2.69 ± 0.18	2.48 ± 0.17	2.32 ± 0.16	2.17 ± 0.15					
C#CCCCCCC [1-octyne] + CC(C)C[P+](C)(CC(C)C)CC(C)C.Cc1ccc(S(=O)(=O)[O-])cc1	3.19 ± 0.22	3.08 ± 0.21	3.06 ± 0.21	3.04 ± 0.21					
C=CCCC [1-pentene] + CC(C)C[P+](C)(CC(C)C)CC(C)C.Cc1ccc(S(=O)(=O)[O-])cc1	30.5 ± 2.1	20.7 ± 1.4	14.5 ± 1	9.91 ± 0.68					
C#CCCC [1-pentyne] + CC(C)C[P+](C)(CC(C)C)CC(C)C.Cc1ccc(S(=O)(=O)[O-])cc1	3.01 ± 0.2	2.55 ± 0.17	2.24 ± 0.15	1.98 ± 0.13					
COC(C)(C)C [2-methoxy-2-methylpropane] + CC(C)C[P+](C)(CC(C)C)CC(C)C.Cc1ccc(S(=O)(=O)[O-])cc1	17.1 ± 1.2	11 ± 0.8	8.26 ± 0.56	5.68 ± 0.39	5 ± 0.34	4.57 ± 0.31	4.16 ± 0.28		
c1ccccc1 [benzene] + CC(C)C[P+](C)(CC(C)C)CC(C)C.Cc1ccc(S(=O)(=O)[O-])cc1	1.53 ± 0.1	1.42 ± 0.09	1.35 ± 0.09	1.28 ± 0.08	1.25 ± 0.08	1.21 ± 0.08	1.2 ± 0.08	1.18 ± 0.08	
CCCCO [butan-1-ol] + CC(C)C[P+](C)(CC(C)C)CC(C)C.Cc1ccc(S(=O)(=O)[O-])cc1			0.322 ± 0.031	0.318 ± 0.031	0.319 ± 0.031	0.328 ± 0.032	0.33 ± 0.032	0.323 ± 0.032	
C1CCCCCC1 [cycloheptane] + CC(C)C[P+](C)(CC(C)C)CC(C)C.Cc1ccc(S(=O)(=O)[O-])cc1	12.3 ± 0.8	9.79 ± 0.67	7.64 ± 0.52	6.55 ± 0.45					
C1CCCCC1 [cyclohexane] + CC(C)C[P+](C)(CC(C)C)CC(C)C.Cc1ccc(S(=O)(=O)[O-])cc1	22.5 ± 1.5	14.5 ± 1	10.5 ± 0.7	7.67 ± 0.52					
C1CCCCCCC1 [cyclooctane] + CC(C)C[P+](C)(CC(C)C)CC(C)C.Cc1ccc(S(=O)(=O)[O-])cc1	10.5 ± 0.7	8.54 ± 0.58	7.48 ± 0.51	6.67 ± 0.45					
C1CCCC1 [cyclopentane] + CC(C)C[P+](C)(CC(C)C)CC(C)C.Cc1ccc(S(=O)(=O)[O-])cc1	20.6 ± 1.4	13.5 ± 0.9	9.69 ± 0.66	6.79 ± 0.46					
CCCCCCCCCC [decane] + CC(C)C[P+](C)(CC(C)C)CC(C)C.Cc1ccc(S(=O)(=O)[O-])cc1	33.3 ± 2.3	29.2 ± 2	26 ± 1.8	23.6 ± 1.6					

Compound	activity coefficient ([1]; 298.15 K)	activity coefficient ([1]; 308.15 K)	activity coefficient ([1]; 318.15 K)	activity coefficient ([1]; 328.15 K)	activity coefficient ([1]; 338.15 K)	activity coefficient ([1]; 348.15 K)	activity coefficient ([1]; 358.15 K)	activity coefficient ([1]; 368.15 K)	mass density [2] [kg/m3]
CCO [ethanol] + CC(C)C[P+](C)(CC(C)C)CC(C)C.Cc1ccc(S(=O)(=O)[O-])cc1		0.263 ± 0.03	0.259 ± 0.03	0.261 ± 0.03	0.262 ± 0.03	0.266 ± 0.03	0.268 ± 0.03	0.266 ± 0.03	
CCc1ccccc1 [ethylbenzene] + CC(C)C[P+](C)(CC(C)C)CC(C)C.Cc1ccc(S(=O)(=O)[O-])cc1	2.51 ± 0.17	2.37 ± 0.16	2.33 ± 0.16	2.25 ± 0.15	2.2 ± 0.15	2.17 ± 0.15	2.16 ± 0.15	2.09 ± 0.14	
CCCCCCC [heptane] + CC(C)C[P+](C)(CC(C)C)CC(C)C.Cc1ccc(S(=O)(=O)[O-])cc1	35.2 ± 2.4	26.4 ± 1.8	20.8 ± 1.4	16.1 ± 1.1					
C=CCCCC [hex-1-ene] + CC(C)C[P+](C)(CC(C)C)CC(C)C.Cc1ccc(S(=O)(=O)[O-])cc1	23.5 ± 1.6	16.5 ± 1.1	12.4 ± 0.8	9.35 ± 0.64					
CCCCCC [hexane] + CC(C)C[P+](C)(CC(C)C)CC(C)C.Cc1ccc(S(=O)(=O)[O-])cc1	48.8 ± 3.3	32.2 ± 2.2	23.3 ± 1.6	16.4 ± 1.1					
CO [methanol] + CC(C)C[P+](C)(CC(C)C)CC(C)C.Cc1ccc(S(=O)(=O)[O-])cc1	0.168 ± 0.029	0.164 ± 0.029	0.166 ± 0.029	0.167 ± 0.029	0.171 ± 0.029	0.175 ± 0.029	0.178 ± 0.029	0.179 ± 0.029	
CCCCCCCCC [nonane] + CC(C)C[P+](C)(CC(C)C)CC(C)C.Cc1ccc(S(=O)(=O)[O-])cc1	26.8 ± 1.8	24.7 ± 1.7	21.6 ± 1.5	19.8 ± 1.4					
C=CCCCCCC [oct-1-ene] + CC(C)C[P+](C)(CC(C)C)CC(C)C.Cc1ccc(S(=O)(=O)[O-])cc1	16.6 ± 1.1	15 ± 1	12.2 ± 0.8	10.8 ± 0.74					
CCCCCCCC [octane] + CC(C)C[P+](C)(CC(C)C)CC(C)C.Cc1ccc(S(=O)(=O)[O-])cc1	30.7 ± 2.1	25.8 ± 1.8	20.6 ± 1.4	17.2 ± 1.2					
CCCCCO [pentan-1-ol] + CC(C)C[P+](C)(CC(C)C)CC(C)C.Cc1ccc(S(=O)(=O)[O-])cc1					0.34 ± 0.032	0.346 ± 0.032	0.354 ± 0.032	0.357 ± 0.033	
CCCCC [pentane] + CC(C)C[P+](C)(CC(C)C)CC(C)C.Cc1ccc(S(=O)(=O)[O-])cc1	61.4 ± 4.2	41.5 ± 2.8	28.5 ± 2	18.5 ± 1.3					
CCCO [propan-1-ol] + CC(C)C[P+](C)(CC(C)C)CC(C)C.Cc1ccc(S(=O)(=O)[O-])cc1		0.278 ± 0.03	0.282 ± 0.03	0.28 ± 0.03	0.284 ± 0.03	0.287 ± 0.031	0.299 ± 0.031	0.287 ± 0.031	
C1CCOC1 [tetrahydrofuran] + CC(C)C[P+](C)(CC(C)C)CC(C)C.Cc1ccc(S(=O)(=O)[O-])cc1	1.41 ± 0.09	1.31 ± 0.09	1.22 ± 0.08	1.12 ± 0.07	1.09 ± 0.07	1.05 ± 0.07	1.05 ± 0.07		
c1ccsc1 [thiophene] + CC(C)C[P+](C)(CC(C)C)CC(C)C.Cc1ccc(S(=O)(=O)[O-])cc1	0.901 ± 0.057	0.848 ± 0.054	0.843 ± 0.054	0.818 ± 0.053	0.812 ± 0.053	0.805 ± 0.052	0.804 ± 0.052		
Cc1ccccc1 [toluene] + CC(C)C[P+](C)(CC(C)C)CC(C)C.Cc1ccc(S(=O)(=O)[O-])cc1	1.94 ± 0.13	1.81 ± 0.12	1.78 ± 0.12	1.69 ± 0.11	1.66 ± 0.11	1.65 ± 0.11	1.64 ± 0.11	1.61 ± 0.11	
CC(C)C[P+](C)(CC(C)C)CC(C)C.Cc1ccc(S(=O)(=O)[O-])cc1 [triisobutylmethylphosphonium p-toluenesulfonate]									1061 ± 3
O [water] + CC(C)C[P+](C)(CC(C)C)CC(C)C.Cc1ccc(S(=O)(=O)[O-])cc1			0.585 ± 0.041	0.552 ± 0.04	0.534 ± 0.039	0.524 ± 0.039	0.492 ± 0.037	0.477 ± 0.037	
